Among the data in publication PMC10962448, “The preclinical and phase 1 development of the novel oral cathepsin C inhibitor BI 1291583” (ERJ Open Research, 2024) are Kd values, retold here.

This test has as its target T1, cathepsin C (CatC; dipeptidyl peptidase 1) (Homo sapiens, UniProt P53634).
T1 construct: gene CTSC
Briefly: surface plasmon resonance with isolated human CatC (pH […]); enzymatic IC50 […]. The class given is binding. (In general: Surface plasmon resonance follows binding to a sensor surface in real time, without labels.)

T1 sequence (P53634 25-134): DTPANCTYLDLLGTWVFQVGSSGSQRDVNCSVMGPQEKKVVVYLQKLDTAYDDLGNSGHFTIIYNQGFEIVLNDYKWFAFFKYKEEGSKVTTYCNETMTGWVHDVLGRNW
T1 sequence (P53634 231-394): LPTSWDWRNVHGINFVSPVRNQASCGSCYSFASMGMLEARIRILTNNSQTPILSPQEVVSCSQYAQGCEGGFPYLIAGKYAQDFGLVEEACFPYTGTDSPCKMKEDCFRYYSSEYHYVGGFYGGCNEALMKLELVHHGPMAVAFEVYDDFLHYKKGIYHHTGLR
T1 sequence (P53634 395-463): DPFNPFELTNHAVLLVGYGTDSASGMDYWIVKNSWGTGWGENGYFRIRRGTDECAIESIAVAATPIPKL

On to BI 1291583, for which the affinity, expressed as Kd, was 0.43 nM.

The Kd is the constant that tells how readily two partners part at equilibrium. The low end stands for higher affinity, the high end for lower affinity.
